Data published in patent publication US8604194B2, “Salts of O-desmethyl-venlafaxine” (Lek Pharmaceuticals D.D., priority 2008, dated 2013).

Assay: Solubility of desvenlafaxine salts in water at 23° C.
Settings: for Solubility of desvenlafaxine salts in water: 23° C.

SMILES: CN(C)CC(c1ccc(O)cc1)C1(O)CCCCC1.O=C[C@H](O)[C@@H](O)[C@H](O)[C@H](O)C(=O)O (stereo not drawn) [O-desmethyl-venlafaxine glucuronate]
- solubility in water (result in words) (refers to Table 1): good solubility in water

SMILES: CN(C)CC(c1ccc(O)cc1)C1(O)CCCCC1.O=C(O)C1OC(O)C(O)C(O)C1O [glucuronate amorphous, desvenlafaxine D-glucuronate]
- Solubility of desvenlafaxine salts in water: 338 mg/mL

SMILES: CN(C)CC(c1ccc(O)cc1)C1(O)CCCCC1.O.O=C(O)C1OC(O)C(O)C(O)C1O [glucuronate crystalline, desvenlafaxine D-glucuronate monohydrate]
- Solubility of desvenlafaxine salts in water: 299 mg/mL
